Measurements published in PubChem BioAssay (NCI).
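Results reflect a 48-hour exposure of cells in 96-well plates to compound at five concentrations. Abbreviation: GI50, concentration required for 50% inhibition of growth. TGI is the concentration that stops growth completely.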

Experiments:
Assay in all cases: DTP human tumour cell line panel, 48 h
786-0 renal = test system: 786-0 renal
A498 renal = test system: A498 renal
A549 NSCLC = test system: A549 NSCLC
ACHN renal = test system: ACHN renal
BT-549 breast = test system: BT-549 breast
CCRF-CEM leukemia = test system: CCRF-CEM leukemia
COLO 205 colon = test system: COLO 205 colon
DU-145 prostate = test system: DU-145 prostate
EKVX NSCLC = test system: EKVX NSCLC
HCC-2998 colon = test system: HCC-2998 colon
HCT-116 colon = test system: HCT-116 colon
HCT-15 colon = test system: HCT-15 colon
HL-60(TB) leukemia = test system: HL-60(TB) leukemia
HOP-62 NSCLC = test system: HOP-62 NSCLC
HOP-92 NSCLC = test system: HOP-92 NSCLC
HS 578T breast = test system: HS 578T breast
HT29 colon = test system: HT29 colon
IGROV1 ovarian = test system: IGROV1 ovarian
K-562 leukemia = test system: K-562 leukemia
KM12 colon = test system: KM12 colon
LOX IMVI melanoma = test system: LOX IMVI melanoma
M14 melanoma = test system: M14 melanoma
MALME-3M melanoma = test system: MALME-3M melanoma
MCF7 breast = test system: MCF7 breast
MDA-MB-231 breast = test system: MDA-MB-231 breast
MDA-MB-435 = test system: MDA-MB-435
MOLT-4 leukemia = test system: MOLT-4 leukemia
NCI-H226 lung = test system: NCI-H226 lung

## CN1CCN(c2cc(C(=O)Nc3cc4cc(-c5cnn(C)c5)ccc4cn3)ccn2)CC1
786-0 renal
  GI50: 300 nM
  TGI: 10400 nM
A498 renal
  GI50: 60.5 nM
  TGI: 447 nM
A549 NSCLC
  GI50: 43.2 nM
  TGI: 11400 nM
ACHN renal
  GI50: 59.7 nM
  TGI: 548 nM
BT-549 breast
  GI50: 78.1 nM
  TGI: 838 nM
CCRF-CEM leukemia
  GI50: 155 nM
  TGI: > 39200 nM
COLO 205 colon
  GI50: 67.3 nM
  TGI: 494 nM
DU-145 prostate
  GI50: 97.1 nM
  TGI: 11400 nM
EKVX NSCLC
  GI50: 302 nM
  TGI: 14300 nM
HCC-2998 colon
  GI50: 276 nM
  TGI: 4570 nM
HCT-116 colon
  GI50: 37.6 nM
  TGI: 11400 nM
HCT-15 colon
  GI50: 66.6 nM
  TGI: 2460 nM
HL-60(TB) leukemia
  GI50: 119 nM
  TGI: 7910 nM
HOP-62 NSCLC
  GI50: 207 nM
  TGI: 12700 nM
HOP-92 NSCLC
  GI50: 160 nM
  TGI: 3600 nM
HS 578T breast
  GI50: 276 nM
  TGI: 6180 nM
HT29 colon
  GI50: 182 nM
  TGI: 442 nM
IGROV1 ovarian
  GI50: 58.1 nM
  TGI: 3300 nM
K-562 leukemia
  GI50: 72.7 nM
  TGI: > 100000 nM
KM12 colon
  GI50: 71 nM
  TGI: 11900 nM
LOX IMVI melanoma
  GI50: 93.3 nM
  TGI: 262 nM
M14 melanoma
  GI50: 220 nM
  TGI: 13300 nM
MALME-3M melanoma
  GI50: 155 nM
  TGI: 584 nM
MCF7 breast
  GI50: 91.1 nM
  TGI: 399 nM
MDA-MB-231 breast
  GI50: 219 nM
  TGI: 3750 nM
MDA-MB-435
  GI50: 169 nM
  TGI: 13200 nM
MOLT-4 leukemia
  GI50: 221 nM
  TGI: 18000 nM
NCI-H226 lung
  GI50: 205 nM
  TGI: 12000 nM
